# Tested on: LTC4-induced contractions of guinea pig lung parenchyma
# Experiment: Inhibition of LTC4-induced contractions of guinea pig lung parenchyma strips
# Parameters: species or system guinea pig (male Hartley)
# Conditions: test compound at 10)M (so in the source); 1×10^-8 M LTC4, compound added 5 min before challenge; footnote c = statistically significant (p = 0.05), Student's t test
# Description: The anti-allergy method of this invention is shown by tests which measure a compound's inhibition of contractile responses of strips of lung parenchyma. Male Hartley guinea pigs (600-800 g body weight) were killed by a blow to the head and then exsanguinated. The lungs were inflated with 5 ml. of air through the trachea, the chest cavity opened, and the lungs perfused in situ through the pulmonary artery with Tyrode's solution. The lower lobe of each lung was excised and dissected into four strips (3×10 mm), each of which was suspended in a constant temperature (37° C.) organ bath containing 10 mL of Tyrode's solution and aerated with 95% O2 -5% CO2. Each lung strip was attached to a Harvard isometric muscle transducer and tension was recorded with a Harvard recording module. The initial tension was adjusted to 2 g and the tissues allowed to equilibrate until a steady baseline was reached. […] The peak contractile response to LTC4 was recorded and expressed as a percent of the maximum response (obtained with 1×10^-4 M histamine) of that lung strip. The effect of each test compound is expressed as percent inhibition of the contractile response calculated as follows: [formula]
structure (smiles),measurement,value
CCCc1c(OCC(O)COc2ccc3c(=O)cc(C(=O)O)oc3c2CCC)ccc(C(C)=O)c1O (stereo not shown) [FPL 55712],% Inhibition of LTC4-induced contractions of guinea pig lung parenchyma,99%
